{"source": "patent US6756368B1", "about": "“Use of cobalt chelates for treating or preventing virus infection” (The Trustees of Columbia University in the City of New York, priority 1999, dated 2004)", "key": {"HSV-1 [1]": {"tested_on": "HSV-1", "assay": "Accumulation of virus-specified proteins (Western blot)", "assay_type": "cell-based, HSV-1 Glasgow strain 17", "experimental": "Protein preparation and western blot analysis were performed as previously described (54). Briefly, at the indicated times the infected cells were collected by centrifugation, resuspended in 1.5×SDS-PAGE sample buffer, and boiled for 10 min. The proteins were separated by SDS-PAGE and electrophorectically transferred to nitrocellulose membranes. Immunodetection of proteins was performed using the following antibodies: ICP0, rabbit polyclonal antibody CLU7 (54); ICP27, rabbit polyclonal antibody CLU38 (54); glycoprotein B (gB), rabbit polyclonal antibody R69 (provided by T. Kristie, National Institute of Allergy and Infectious Diseases) [Zhang, et al. 1991]; and _TIF, rabbit polyclonal antibody anti-VP16 (Clontech Laboratories Inc., Palo Alto, Calif.). The secondary antibodies used were goat anti-rabbit and goat anti-mouse IgG conjugated to horseradish peroxidase (Kirkegaard and Perry Laboratories, Inc., Gaithersburg, Md.). Immunoblots were developed as previously described (55).\nAccumulation of Virus-Specified Proteins in the Presence of Drug. Failure to efficiently replicate virus DNA could result from a specific block of replication per se or because virus-specified gene expression is affected by drug. To address this issue cells were infected with HSV-1 at an moi of 5, 50 μg/ml of drug was either added at time 0, 1 hr pi or not added and at intervals post infection the infected cells were harvested and proteins were extracted and assayed for the presence of virus specified polypeptides by Western blot. […] The residual reactivity with ∝-TIF in the sample treated at T=0 results from protein associated with the infecting virions. There is no increase in the accumulation of this protein during the course of infection. It is not possible to exclude the possibility that virus never enters these cells and that the ∝-TIF that is detected results from cell associated virus."}, "HSV-1 [2]": {"tested_on": "HSV-1", "assay": "Virus entry assay, αTIF immunofluorescence", "assay_type": "cell-based, HSV-1 Glasgow strain 17", "experimental": "(i) αTIF immunofluorescence. […] Pre-warmed media (37° C.) was added to each plate, incubated at 37° C. for the indicated times and washed twice with ice cold PBS on ice. The infected cells were fixed in 3.7% formaldehyde in PBS for 30 min at room temperature and washed with PBS. The fixed monolayers were permeabilized in −20° C. acetone at −20° C. for 10 min. Cells were washed with water and then PBS. Fixed cells were incubated in 10% normal goat serum (NGS; Roche, Indianapolis, Ind.) in 0.1% Tween 20 in PBS (PBST) for 20 min at RT and washed twice with PBST. Cover slips were then incubated in PBST containing 1% NGS and 1:200 polyclonal antibody anti-VP16 antibody (Clontech Laboratories, Inc.) for 30 min and washed 6 times with PBST. The infected cell monolayers were then incubated in PBST containing 1% NGS and 1:200 goat anti-rabbit IgG antibody conjugated to fluorescein isothiocyanate (FITC; Kirkegaard and Perry Laboratories, Inc.) for 30 min and washed 6 times with PBST. The cover slips were then mounted on slides in gel/mount solution (Biomeda, Fisher, Springfield, N.J.) and viewed with a 100× lens of a Zeiss LSM 4100 confocal laser scanning system attached to a Zeiss Axiovert 100TV inverted microscope. Each image is the average of 1 μm Z series.\nThere are several approaches to assessing the ability of virus to adsorb and enter a cell. […]"}, "HSV-1 [3]": {"tested_on": "HSV-1", "assay": "Fluorescence dequenching fusion assay with R18 labeled HSV-1", "assay_type": "cell-based, HSV-1 Glasgow strain 17", "settings": "50 μg/ml"}, "HSV-1 [4]": {"tested_on": "HSV-1", "assay_type": "cell-based, HSV-1 Glasgow strain 17"}, "influenza virus": {"tested_on": "influenza virus", "assay": "Influenza virus plaque assay on MDCK cells", "assay_type": "cell-based, influenza virus strain PR8", "settings": "magnitude not quantifiable"}, "Ad-CMV-null": {"tested_on": "Ad-CMV-null", "assay": "Fluorescence focus assay, AdCMV-null on 293T cells", "assay_type": "cell-based, adenovirus", "experimental": "A549 or 293 cell monolayers were infected with Ad2 or Ad-CMV-null at 0.1 fluorescence focus units (FFUs) per cell for 2 h in 2% BCS DMEM in the presence and absence of 50 μg/ml CTC-96. At 29 h postinfection the plates were washed twice with PBS and fixed with methanol for 4 min at room temperature. Cells were washed twice with PBS, incubated in 500 μl 1:100 rabbit polyclonal anti-adenovirus serum in PBS for 30 min at room temperature and washed with PBS. Plates were then incubated in 500 μl 1:40 goat anti-rabbit IgG conjugated FITC in PBS. Foci were visualized using a Leitz Dialux microscope with an optical system for the selective visualization of FITC and then counted.\n293T cells were plated on 35 mm dishes. Cells should be @5×10^6 cells/plate.\n293T Cells were infected with AdCMV-null @ moi=0.1 (i.e. 0.1 FFU/cell)\nvirus was diluted in D2 media +/− 50 μg/ml CTC96 D2=2% serum DMEM\nPlates were overlaid with 2.5 ml D2 +/− 50 μg/ml CTC96 and incub. @37° C. for 28 h (total)"}, "293T cells": {"tested_on": "293T cells", "assay": "Cytotoxic effect of drug on 293T cells", "assay_type": "cell-based", "settings": "50 μg/ml, no virus", "experimental": "2 plates of cells were incub. In D2 media +50 μg/ml CTC96 (to see cytotoxic effect of drug on 293T cells)\nPlates containing 293T cells +or − 50 μg/lm CTC96 were examined\nplates containing 293T cells +or − CTC96 were examined"}, "HSV-1 [5]": {"tested_on": "HSV-1", "settings": "in vivo; cited from earlier work"}, "HSV-1 and 2": {"tested_on": "HSV-1 and 2", "settings": "cited from earlier work"}}, "note": "“Also recorded” adds a separate entry of the source."}
{"compound": "CC(/C=C(/C)[O-])=NCCN=C(C)/C=C(/C)[O-].Cc1ncc[nH]1.Cc1ncc[nH]1.[Br-].[Co+3]", "note": "[CTC-96]", "values": [{"measurement": "accumulation of virus-specified proteins", "setting": "HSV-1 [1]; 50 μg/ml added 1 hr pi / after initiation of infection", "result": "only a small effect; also recorded: little or no effect"}, {"measurement": "accumulation of gB (early) and α-TIF (late)", "setting": "HSV-1 [1]; 50 μg/ml added at time 0", "result": "no measurable accumulation"}, {"measurement": "synthesis of ICP0 and ICP27 (immediate early)", "setting": "HSV-1 [1]; 50 μg/ml added at time 0", "result": "little if any synthesis"}, {"measurement": "accumulation of virus proteins of all kinetic classes", "setting": "HSV-1 [1]; 50 μg/ml present from the initiation of infection", "result": "prevented the accumulation of gene products from all kinetic classes; also recorded: prevents synthesis of all kinetic classes of virus proteins"}, {"measurement": "virus entry / nuclear accumulation of αTIF", "setting": "HSV-1 [2]; 50 μg/ml, MOI 100, 30-60 min after shift to 37° C.", "result": "no evidence for virus entering the cell; also recorded: unable to accumulate in the nucleus; also recorded: prevented nuclear accumulation"}, {"measurement": "virus bound to cells", "setting": "HSV-1 [2]; 5 min after shift up to 37° C.", "result": "less virus bound"}, {"measurement": "fusion of the virus envelope with the plasma membrane", "setting": "HSV-1 [3]", "result": "prevented HSV-1 fusion to the cell; also recorded: inhibits the fusion of the virion envelope with the plasma membrane; also recorded: inhibited"}, {"measurement": "fluorescence dequenching of R18", "setting": "HSV-1 [3]; up to 40 min post-warming", "result": "significantly dampened"}, {"measurement": "syncytia formation by a syncytia forming virus", "setting": "HSV-1 [4]; CTC-96 added at 1 or 10 hpi", "result": "unable to form syncytia"}, {"measurement": "cell-to-cell spread (multi-celled foci)", "setting": "HSV-1 [4]; CTC-96 added at 8 hpi", "result": "unable to form multi-celled foci"}, {"measurement": "effect on influenza virus infection", "setting": "influenza virus", "result": "positive virus inhibitory effect; also recorded: effective against influenza virus infection"}, {"measurement": "adenovirus foci", "setting": "Ad-CMV-null; 50 μg/ml, 293T cells, AdCMV-null moi 0.1, 28 h", "result": "NO FOCI ON EITHER PLATE"}, {"measurement": "% Inhibition", "setting": "Ad-CMV-null; Ad-CMV-null, 293T, 50 μg/ml of CTC-96, fluorescence focus assay", "result": 100, "unit": "%"}, {"measurement": "cells rounded (CPE)", "setting": "293T cells; examined after fixation at 28 h", "result": "at least 50%"}, {"measurement": "cells off of plate", "setting": "293T cells; examined after staining", "result": 50, "unit": "%"}, {"measurement": "remaining cells rounded up (CPE)", "setting": "293T cells; examined after staining", "result": 50, "unit": "%"}, {"measurement": "effect on HSV-1 keratitis in the rabbit eye model", "setting": "HSV-1 [5]", "result": "reduce the corneal surface level of HSV-1 and facilitate the recovery from dendritic keratitis; also recorded: most potent inhibitory effect"}, {"measurement": "HSV-1 production in tissue culture", "setting": "HSV-1 and 2", "result": "effective in inhibiting HSV-1 production"}, {"measurement": "rank among the CTC compounds against HSV", "setting": "HSV-1 and 2; comparison of several CTC complexes", "result": "least cytotoxic and most effective of the CTC compounds; also recorded: most potent inhibitor of HSV-1 in tissue culture and in the rabbit eye model"}]}
